Reference: patent publication US20260083701A1, “COMPOSITIONS, FORMULATIONS, AND METHODS FOR TREATMENT OF INFLAMMATORY CONDITIONS” (Oddity Labs, LLC, priority 2023, published 2026)

Experiments:
[1] = system: IL-13; test: Functional Th2-blocking activity: IL-13 expression in primary human Th2 cells (intracellular flow cytometry); format: cell-based; settings: for Expression of Cytokine following Stimulation (% X Positive among CD4+ T cells) IL-13: 3 days co-culture with compound, PMA/ionomycin stimulation 6 hours; for % Normalized Reduction of Cytokine Expression From Baseline in CD4+ T Cells IL-13: normalized against vehicle control (water), 3 days co-culture, PMA/ionomycin 6 hours
Excerpt: (§1) To produce T helper 2 (Th2) cells, peripheral blood mononuclear cells (PBMCs) were harvested from healthy donor leukopaks using Ficoll gradients. Naive CD4+ T cells were further isolated, then activated using TransAct or Dynabeads (depending on the donor). CD4+ T cells were activated for two days in the presence of low dose IL-2 (30 IU/mL) in X-VIVO-15 media containing 5% human AB serum (activation cycle). On the second day, the media was exchanged and supplemented with interleukin 4 (IL-4) (20 ng/mL), anti-IFN-gamma antibody (1 μg/mL), and interleukin 2 (IL-2) (rest cycle). The cells were cultured for an additional five days then evaluated for Prostaglandin D2 receptor 2 (DP2 or CRTH2) expression and IL-4 and interleukin 13 (IL-13) expression following phorbol myristate acetate (PMA)/ionomycin stimulation. If the expression of CRTH2 was >50%, the cells were frozen and used in Th2 IL-4/IL-13 bioactivity assays. If the expression of CRTH2 <50%, then the cells were restimulated using TransAct (or Dynabeads) and maintained on similar cycles of activation (2 days) and rest (5 days), until the expression of CRTH2 exceeded 50%. Typically, no more than 4 cycles are needed before the Th2 cells may be harvested and frozen.
(§2) For testing the ability of a compound or salt of the present disclosure to reduce the expression of IL-4 and IL-13 was tested in primary human Th2 cells, the abovementioned cells were thawed, then cultured for one day in IL-2 containing media. The Th2 cells were treated with compounds added at varying concentrations for three days, after which, the cells were washed, and stimulated with PMA/ionomycin for 6 hrs prior to readabout via intracellular flow cytometry.
(§3) The ability of a compound or salt of the present disclosure to reduce the expression of IL-4 and IL-13 was tested in primary human Th2 cells. Naive, primary human CD4+ T cells were isolated from healthy donors and differentiated into Th2 cells using a combination of IL-4 cytokine and anti-IFN-gamma antibody, based on a modified protocol from Scott et al (Activation of Th2 cells downregulates CRTh2 through an NFAT1 mediated mechanism. PLoS One. 2018 Jul. 3; 13(7):e0199156). Th2 cells were CRTH2+ and expressed IL-4 and IL-13 following PMA/ionomycin stimulation. Prior to PMA/ionomycin stimulation, Th2 cells were co-cultured with a compound or salt of the present disclosure for 3 days and then stimulated for 6 hours. Intracellular flow cytometry was performed to investigate the expression of IL-4 and IL-13 among stimulated CD4+ Th2 cells. The compound or salt was evaluated across a 2-log concentration range. Th2 cells were cultured in X-VIVO-15 media with human AB serum and supplemented with low dose IL-2 (30 IU/mL). The antibody panel that was used is listed below. All antibodies were obtained from Biolegend.
(§4) Description of Calculation for: (1) Expression of Cytokine following Stimulation (% X Positive among CD4+ T cells), and (2) % Normalized Reduction of Cytokine Expression From Baseline in CD4+ T Cells
(§5) The expression of IL-4 and IL-13 was measured based on positive gated fractions among CD4+ Th2 cells. The number is expressed as a positive percentage, determined based on the fluorescence-minus-one (FMO) control. The max percent is 100%. The normalized reduction value uses the vehicle control (water) to normalize against using the following percent change formula. (Cmpd: compound)

[2] = system: IL-4 receptor signaling; test: IL-4 signaling inhibition in HEK-Blue IL-4/IL-13 cells; format: cell-based, human; settings: HEK-Blue IL-4/IL-13 cells stimulated with 1.25 ng/mL IL-4, co-culture with varying concentrations for 24 hours
Method: HEK-Blue IL-4/IL-13 cells are used to evaluate IL-4/IL-4R-alpha binding. HEK-Blue IL-4/IL-13 have been engineered to produce secreted alkaline phosphatase (SEAP) when exposed to IL-4 or IL-13 and have been previously used to identify IL-4 and IL-4R inhibitors. Compounds are tested with these cells at various dosages to evaluate dose dependent changes in IL-4/IL-4R-alpha binding inhibition. Full EC50 curves are generated for Tier1 compounds.
In the experiment, engineered HEK-Blue™ IL-4/IL-13 cells were stimulated with a dose of 1.25 ng/mL of IL-4 and then subjected to co-culture with varying concentrations of the compounds for a period of 24 hours. […] The provided data represent the mean±standard deviation of six technical replicates carried out across two experimental replicates.

[3] = system: IL-4; test: Functional Th2-blocking activity: IL-4 expression in primary human Th2 cells (intracellular flow cytometry); format: cell-based; settings: for % Normalized Reduction of Cytokine Expression From Baseline in CD4+ T Cells IL-4: normalized against vehicle control (water), 3 days co-culture, PMA/ionomycin 6 hours; for % Normalized Reduction of Cytokine Expression From Baseline in CD4+ T Cells IL-4 / Expression of Cytokine following Stimulation (% X Positive among CD4+ T cells) IL-4: primary human CD4+ Th2 cells; for Expression of Cytokine following Stimulation (% X Positive among CD4+ T cells) IL-4: 3 days co-culture with compound, PMA/ionomycin stimulation 6 hours
Excerpt: as §1, §2, §3, §4, §5

SMILES | Expression of Cytokine following Stimulation (% X Positive among CD4+ T cells) IL-13 [1] | % Normalized Reduction of Cytokine Expression From Baseline in CD4+ T Cells IL-13 [1] | IL-4 signaling inhibition [2] | % Normalized Reduction of Cytokine Expression From Baseline in CD4+ T Cells IL-4 [3] | Expression of Cytokine following Stimulation (% X Positive among CD4+ T cells) IL-4 [3] | Th2 activity [3]
Nc1c(C(=O)Nc2ccc(Cl)c(Cl)c2)c2ccccn2c1C(=O)c1cccc([N+](=O)[O-])c1 [Compound I-3, 2-amino-N-(3,4-dichlorophenyl)-3-(3-nitrobenzoyl)indolizine-1-carboxamide] | C (C represents 14% to less than 18%) | C (C represents 40% to less than 50%) | prominent IL-4 signaling inhibition | B (B represents 15% to less than 20%) | B (B represents 30% to less than 35%) | 
O=C(Nc1cccc(Cn2nc3ccccn3c2=O)c1)c1c[nH]n2c1nc(=O)c1ccccc12 [II-2, 5-oxo-N-(3-((3-oxo-[1,2,4]triazolo[4,3-a]pyridin-2(3H)-yl)methyl)phenyl)-1,5-dihydropyrazolo[1,5-a]quinazoline-3-carboxamide] | B (B represents 10% to less than 14%) | D (D represents 50% or greater) | exception | B (B represents 15% to less than 20%) | B (B represents 30% to less than 35%) | suppressed Th2 activity
O=C(Nc1cccc(S(=O)(=O)NC2=NCCC2)c1)c1ccc(OCc2ccccc2)cc1 [III-1, 4-(benzyloxy)-N-{3-[(3,4-dihydro-2H-pyrrol-5-yl)sulfamoyl]phenyl}benzamide] | B (B represents 10% to less than 14%) | D (D represents 50% or greater) | prominent IL-4 signaling inhibition | D (D represents 25% or greater) | A (A represents 0% to less than 30%) | 
